# Measurements reported in patent publication US10570131B2, “Heterocyclic compounds and their use in preventing or treating bacterial infections” (MUTABILIS, priority 2015, dated 2020).
# Counter-ions that a name gives are not always drawn.
# Experiments:
# Assay type in all cases: cell-based
# P. aeruginosa UFR59 [1] = experiment: MIC of ceftazidime alone and in combination with compounds (synergy), broth microdilution; conditions: MIC of ceftazidime with compound fixed at 4 μg/mL; strain UFR59 (IMP-29)
# P. aeruginosa UFR93 [2] = experiment: as above; conditions: MIC of ceftazidime with compound fixed at 4 μg/mL; strain UFR93 (derepressed AmpC, OprD−, MexAB+, MexXY+)
# P. aeruginosa UFR47 [3] = experiment: as above; conditions: MIC of ceftazidime with compound fixed at 4 μg/mL; strain UFR47 (VIM-1)
# C. murliniae 210102 [4] = experiment: as above; conditions: MIC of ceftazidime with compound fixed at 4 μg/mL; strain 210102 (VIM-4)
# P. aeruginosa UFR47 [5] = experiment: MIC of compounds alone, broth microdilution; conditions: Pseudomonas aeruginosa; strain UFR47 (VIM-1); read-out: MIC compounds of the invention alone
# Procedure, shortened: (§1)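 Visual endpoint: no growth after 16-20 h at 35° C in ambient air defines MIC. Test medium was cation-adjusted Mueller-Hinton broth seeded with 5×10^5 cfu/mL log-phase bacteria, compounds given singly or alongside ceftazidime.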
# P. aeruginosa UFR92 = experiment: MIC of compounds alone, broth microdilution; conditions: Pseudomonas aeruginosa, UFR92, read-out: MIC compounds of the invention alone
# Procedure, shortened: as §1
# K. pneumoniae 160143 = experiment: MIC of compounds alone, broth microdilution; conditions: Klebsiella pneumoniae, 160143, read-out: MIC compounds of the invention alone
# Procedure, shortened: as §1
# E. coli UFR32 = experiment: MIC of compounds alone, broth microdilution; conditions: Escherichia coli, UFR32, read-out: MIC compounds of the invention alone
# Procedure, shortened: as §1
# P. aeruginosa UFR59 [6] = experiment: MIC of compounds alone, broth microdilution; conditions: Pseudomonas aeruginosa; strain UFR59 (IMP-29); read-out: MIC compounds of the invention alone
# Procedure, shortened: as §1
# P. aeruginosa UFR90 = experiment: MIC of compounds alone, broth microdilution; conditions: Pseudomonas aeruginosa, UFR90, read-out: MIC compounds of the invention alone
# Procedure, shortened: as §1
# K. oxytoca UFR21 = experiment: MIC of compounds alone, broth microdilution; conditions: Klebsiella oxytoca, UFR21, read-out: MIC compounds of the invention alone
# Procedure, shortened: as §1
# E. cloacae UFR38 = experiment: MIC of compounds alone, broth microdilution; conditions: Enterobacter cloacae; strain UFR38 (CTX-M-15, NDM-1); read-out: MIC compounds of the invention alone
# Procedure, shortened: as §1
# E. coli UFR52 [7] = experiment: MIC of compounds alone, broth microdilution; conditions: Escherichia coli, UFR52, read-out: MIC compounds of the invention alone
# Procedure, shortened: as §1
# K. pneumoniae 200047 = experiment: MIC of compounds alone, broth microdilution; conditions: Klebsiella pneumoniae, 200047, read-out: MIC compounds of the invention alone
# Procedure, shortened: as §1
# P. aeruginosa UFR35 = experiment: MIC of compounds alone, broth microdilution; conditions: Pseudomonas aeruginosa; strain UFR35 (OXA-23); read-out: MIC compounds of the invention alone
# Procedure, shortened: as §1
# E. coli UFR74 = experiment: MIC of compounds alone, broth microdilution; conditions: Escherichia coli, UFR74, read-out: MIC compounds of the invention alone
# Procedure, shortened: as §1
# P. aeruginosa UFR93 [8] = experiment: MIC of compounds alone, broth microdilution; conditions: Pseudomonas aeruginosa, UFR93, read-out: MIC compounds of the invention alone
# Procedure, shortened: as §1
# K. pneumoniae UFR68 = experiment: MIC of compounds alone, broth microdilution; conditions: Klebsiella pneumoniae, UFR68, read-out: MIC compounds of the invention alone
# Procedure, shortened: as §1
# K. pneumoniae UFR77 = experiment: MIC of compounds alone, broth microdilution; conditions: Klebsiella pneumoniae; strain UFR77 (CMY-2); read-out: MIC compounds of the invention alone
# Procedure, shortened: as §1
# E. cloacae UFR70 = experiment: MIC of compounds alone, broth microdilution; conditions: Enterobacter cloacae, UFR70, read-out: MIC compounds of the invention alone
# Procedure, shortened: as §1
# E. cloacae 260508 = experiment: MIC of compounds alone, broth microdilution; conditions: Enterobacter cloacae, 260508, read-out: MIC compounds of the invention alone
# Procedure, shortened: as §1
# E. cloacae UFR85 = experiment: MIC of compounds alone, broth microdilution; conditions: Enterobacter cloacae, UFR85, read-out: MIC compounds of the invention alone
# Procedure, shortened: as §1
# P. aeruginosa UFR48 = experiment: MIC of compounds alone, broth microdilution; conditions: Pseudomonas aeruginosa; strain UFR48 (VIM-2); read-out: MIC compounds of the invention alone
# Procedure, shortened: as §1
# K. pneumoniae UFR24 = experiment: MIC of compounds alone, broth microdilution; conditions: Klebsiella pneumoniae, UFR24, read-out: MIC compounds of the invention alone
# Procedure, shortened: as §1
# E. coli UFR61O = experiment: MIC of compounds alone, broth microdilution; conditions: Escherichia coli, UFR61O, read-out: MIC compounds of the invention alone
# Procedure, shortened: as §1
# C. murliniae 210102 [9] = experiment: MIC of compounds alone, broth microdilution; conditions: strain 210102 (VIM-4); read-out: MIC compounds of the invention alone
# Procedure, shortened: as §1
# E. coli UFR18 = experiment: MIC of compounds alone, broth microdilution; conditions: Escherichia coli; strain UFR18 (CTX-M-15, OXA-204); read-out: MIC compounds of the invention alone
# Procedure, shortened: as §1
# E. coli UFR52 [10] = experiment: MIC of ceftazidime alone and in combination with compounds (synergy), broth microdilution; conditions: MIC of ceftazidime with compound fixed at 4 μg/mL; strain UFR52 (TEM-1, SHV-12, IMP-8)
Structure (SMILES),"MIC, combination of CAZ and compounds of the invention at 4 μg/mL (P. aeruginosa UFR59 [1]) [µg/mL]","MIC, combination of CAZ and compounds of the invention at 4 μg/mL (P. aeruginosa UFR93 [2]) [µg/mL]","MIC, combination of CAZ and compounds of the invention at 4 μg/mL (P. aeruginosa UFR47 [3]) [µg/mL]","MIC, combination of CAZ and compounds of the invention at 4 μg/mL (C. murliniae 210102 [4]) [µg/mL]",MIC (P. aeruginosa UFR47 [5]) [µg/mL],MIC (P. aeruginosa UFR92) [µg/mL],MIC (K. pneumoniae 160143) [µg/mL],MIC (E. coli UFR32) [µg/mL],MIC (P. aeruginosa UFR59 [6]) [µg/mL],MIC (P. aeruginosa UFR90) [µg/mL],MIC (K. oxytoca UFR21) [µg/mL],MIC (E. cloacae UFR38) [µg/mL],MIC (E. coli UFR52 [7]) [µg/mL],MIC (K. pneumoniae 200047) [µg/mL],MIC (P. aeruginosa UFR35) [µg/mL],MIC (E. coli UFR74) [µg/mL],MIC (P. aeruginosa UFR93 [8]) [µg/mL],MIC (K. pneumoniae UFR68) [µg/mL],MIC (K. pneumoniae UFR77) [µg/mL],MIC (E. cloacae UFR70) [µg/mL],further results
"NC[C@@H]1CC(=NOCC(N)=O)[C@@H]2CN1C(=O)N2OS(=O)(=O)O (mixture of isomers) [Example 5, sodium and 2,2,2-trifluroacetate [(2S,5S)-4-(2-amino-2-oxo-ethoxy)imino-2-(azaniumylmethyl)-7-oxo-1,6-diazabicyclo[3.2.1]octan-6-yl] sulfate]",<0.25,<0.25,<0.25,1,2,2,> 32,1,4,1,> 32,0.125,8,> 32,1,> 32,4,> 32,> 32,> 32,"MIC (E. cloacae 260508): 32 µg/mL; MIC (E. cloacae UFR85): > 32 µg/mL; MIC (P. aeruginosa UFR48): 2 µg/mL; MIC (K. pneumoniae UFR24): > 32 µg/mL; MIC (E. coli UFR61O): 0.5 µg/mL; MIC (C. murliniae 210102 [9]): > 32 µg/mL; MIC (E. coli UFR18): 0.25 µg/mL; MIC, combination of CAZ and compounds of the invention at 4 μg/mL (E. coli UFR52 [10]): ≤0.25 µg/mL"
"NC[C@@H]1CC(=O)[C@@H]2CN1C(=O)N2OS(=O)(=O)O [Example 6, 2,2,2-trifluroacetate and sodium [(2S,5S)-2-(azaniumylmethyl)-4,7-dioxo-1,6-diazabicyclo[3.2.1]octan-6-yl] sulfate]",≤0.25,0.5,≤0.25,4,4,4,> 32,1,16,4,> 32,0.5,2,> 32,4,> 32,8,> 32,> 32,> 32,"MIC (E. cloacae 260508): > 32 µg/mL; MIC (E. cloacae UFR85): > 32 µg/mL; MIC (P. aeruginosa UFR48): 8 µg/mL; MIC (K. pneumoniae UFR24): > 32 µg/mL; MIC (E. coli UFR61O): 4 µg/mL; MIC (C. murliniae 210102 [9]): > 32 µg/mL; MIC (E. coli UFR18): 1 µg/mL; MIC, combination of CAZ and compounds of the invention at 4 μg/mL (E. coli UFR52 [10]): <0.25 µg/mL"
